Test results: patent publication US8664220B2, “Polycyclic compounds as lysophosphatidic acid receptor antagonists” (Amira Pharmaceuticals, Inc., priority 2009, dated 2014)

What follows are molecules tested against T1, human LPA1 (Homo sapiens, UniProt Q92633) (assay: LPA1 calcium flux assay). Conditions: human LPA1 expressing CHO cells, stimulated with 10 nM LPA; read-out: HLPA1 Ca Flux IC50.
T1 construct: the full-length cDNA for human LPA1 was obtained by PCR of the reverse transcription reaction; expressed in transfected cells
T1 sequence (Q92633 whole entry): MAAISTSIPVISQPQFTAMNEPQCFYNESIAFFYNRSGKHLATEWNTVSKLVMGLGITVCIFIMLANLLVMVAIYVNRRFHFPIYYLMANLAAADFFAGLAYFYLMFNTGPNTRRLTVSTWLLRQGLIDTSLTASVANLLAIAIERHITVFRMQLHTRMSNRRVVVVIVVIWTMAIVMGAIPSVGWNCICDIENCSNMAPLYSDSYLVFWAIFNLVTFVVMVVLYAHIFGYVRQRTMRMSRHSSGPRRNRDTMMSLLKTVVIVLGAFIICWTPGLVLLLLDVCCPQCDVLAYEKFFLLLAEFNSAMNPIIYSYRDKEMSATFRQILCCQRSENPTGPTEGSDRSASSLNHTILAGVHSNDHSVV
Type: cell-based
Outline: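 CHO cells stably expressing human LPA1, serum-starved overnight and loaded with Calcium 4 dye in HBSS/20 mM Hepes/0.3% fatty-acid-free HSA, 1 h at 37 °C. Compounds pre-incubated 30 min at room temperature, then 10 nM LPA added; intracellular Ca2+ flux measured and IC50 from titration curves.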

IC50	Structure (SMILES)
< 300 nM	Cc1noc(-c2ccc(-c3ccc(C4(C(=O)O)CC4)cc3)cc2)c1Nc1cccc(OC(C)C2CCCCC2)n1 (centres unmarked) [Compound 1-140, 1-(4′-{4-[6-(1-Cyclohexyl-ethoxy)-pyridin-2-ylamino]-3-methyl-isoxazol-5-yl}-biphenyl-4-yl)-cyclopropanecarboxylic acid]
< 300 nM	Cc1noc(-c2ccc(-c3ccc(C4(C(=O)O)CC4)cc3)cc2)c1Nc1cccc(OCCc2ccccc2)n1 [Compound 1-141, 1-{4′-[3-Methyl-4-(6-phenethyloxy-pyridin-2-ylamino)-isoxazol-5-yl]-biphenyl-4-yl}-cyclopropanecarboxylic acid]
1000 to 50000 nM	Cc1noc(-c2ccc(-c3ccc(C(=O)O)cc3)cc2)c1Nc1nnc(-c2ccccc2)o1 [Compound 1-142, 4′-[3-Methyl-4-(5-phenyl-[1,3,4]oxadiazol-2-ylamino)-isoxazol-5-yl]-biphenyl-4-carboxylic acid]
< 300 nM	Cc1noc(-c2ccc(-c3ccc(C4(C(=O)O)CC4)cc3)cc2)c1Nc1cccc(N2CCOC2=O)n1 [Compound 1-143, 1-(4′-{3-Methyl-4-[6-(2-oxo-oxazolidin-3-yl)-pyridin-2-ylamino]-isoxazol-5-yl}-biphenyl-4-yl)-cyclopropanecarboxylic acid]
< 300 nM	Cc1noc(-c2ccc(-c3ccc(C4(C(=O)O)CC4)cc3)cc2)c1Nc1cccc(-c2cccc(C(N)=O)c2)n1 [Compound 1-144, 1-(4′-{4-[6-(3-Carbamoyl-phenyl)-pyridin-2-ylamino]-3-methyl-isoxazol-5-yl}-biphenyl-4-yl)-cyclopropanecarboxylic acid]
< 300 nM	Cc1noc(-c2ccc(-c3ccc(C4(C(=O)O)CC4)cc3)cc2)c1Nc1cccc(-c2cccc(C#N)c2)n1 [Compound 1-145, 1-(4′-{4-[6-(3-Cyano-phenyl)-pyridin-2-ylamino]-3-methyl-isoxazol-5-yl}-biphenyl-4-yl)-cyclopropanecarboxylic acid]
< 300 nM	COc1ccc(F)cc1-c1cccc(Nc2c(C)noc2-c2ccc(-c3ccc(C4(C(=O)O)CC4)cc3)cc2)n1 [Compound 1-146, 1-(4′-{4-[6-(5-Fluoro-2-methoxy-phenyl)-pyridin-2-ylamino]-3-methyl-isoxazol-5-yl}-biphenyl-4-yl)-cyclopropanecarboxylic acid]
< 300 nM	Cc1noc(-c2ccc(-c3ccc(C4(C(=O)O)CC4)cc3)cc2)c1Nc1cccc(-c2cc(F)cc(Cl)c2)n1 [Compound 1-147, 1-(4′-{4-[6-(3-Chloro-5-fluoro-phenyl)-pyridin-2-ylamino]-3-methyl-isoxazol-5-yl}-biphenyl-4-yl)-cyclopropanecarboxylic acid]
< 300 nM	Cc1noc(-c2ccc(-c3ccc(C4(C(=O)O)CC4)cc3)cc2)c1Nc1cccc(-c2cc(F)ccc2F)n1 [Compound 1-148, 1-(4′-{4-[6-(2,5-Difluoro-phenyl)-pyridin-2-ylamino]-3-methyl-isoxazol-5-yl}-biphenyl-4-yl)-cyclopropanecarboxylic acid]
1000 to 50000 nM	Cc1noc(-c2ccc(-c3ccc(C4(C(=O)O)CC4)cc3)cc2)c1Nc1cccc(-c2nn[nH]n2)n1 [Compound 1-149, 1-(4′-{3-Methyl-4-[6-(2H-tetrazol-5-yl)-pyridin-2-ylamino]-isoxazol-5-yl}-biphenyl-4-yl)-cyclopropanecarboxylic acid]
< 300 nM	Cc1noc(-c2ccc(-c3ccc(C4(C(=O)O)CC4)cc3)cc2)c1Nc1cccc(-c2c(Cl)cccc2Cl)n1 [Compound 1-150, 1-(4′-{4-[6-(2,6-Dichloro-phenyl)-pyridin-2-ylamino]-3-methyl-isoxazol-5-yl}-biphenyl-4-yl)-cyclopropanecarboxylic acid]
< 300 nM	Cc1noc(-c2ccc(-c3ccc(C4(C(=O)O)CC4)cc3)cc2)c1Nc1cccc(-c2cc(F)ccc2Cl)n1 [Compound 1-151, 1-(4′-{4-[6-(2-Chloro-5-fluoro-phenyl)-pyridin-2-ylamino]-3-methyl-isoxazol-5-yl}-biphenyl-4-yl)-cyclopropanecarboxylic acid]
< 300 nM	Cc1noc(-c2ccc(-c3ccc(C4(C(=O)O)CC4)cc3)cc2)c1Nc1cccc(-c2cccc(F)c2F)n1 [Compound 1-152, 1-(4′-{4-[6-(2,3-Difluoro-phenyl)-pyridin-2-ylamino]-3-methyl-isoxazol-5-yl}-biphenyl-4-yl)-cyclopropanecarboxylic acid]
< 300 nM	Cc1noc(-c2ccc(-c3ccc(C4(C(=O)O)CC4)cc3)cc2)c1Nc1cccc(-c2cccc(F)c2Cl)n1 [Compound 1-153, 1-(4′-{4-[6-(2-Chloro-3-fluoro-phenyl)-pyridin-2-ylamino]-3-methyl-isoxazol-5-yl}-biphenyl-4-yl)-cyclopropanecarboxylic acid]
< 300 nM	Cc1noc(-c2ccc(-c3ccc(C4(C(=O)O)CC4)cc3)cc2)c1Nc1cccc(OCC2CC2)n1 [Compound 1-154, 1-{4′-[4-(6-Cyclopropylmethoxy-pyridin-2-ylamino)-3-methyl-isoxazol-5-yl]-biphenyl-4-yl}-cyclopropanecarboxylic acid]
< 300 nM	Cc1noc(-c2ccc(-c3ccc(C4(C(=O)O)CC4)cc3)cc2)c1Nc1cncc(-c2cccc(F)c2Cl)c1 [Compound 1-155, 1-(4′-{4-[5-(2-Chloro-3-fluoro-phenyl)-pyridin-3-ylamino]-3-methyl-isoxazol-5-yl}-biphenyl-4-yl)-cyclopropanecarboxylic acid]
< 300 nM	Cc1noc(-c2ccc(-c3ccc(C4(C(=O)O)CC4)cc3)cc2)c1Nc1cccc(-c2cccc(F)c2C)n1 [Compound 1-156, 1-(4′-{4-[6-(3-Fluoro-2-methyl-phenyl)-pyridin-2-ylamino]-3-methyl-isoxazol-5-yl}-biphenyl-4-yl)-cyclopropanecarboxylic acid]
< 300 nM	Cc1noc(-c2ccc(-c3ccc(C4(C(=O)O)CC4)cc3)cc2)c1Nc1cccc(-c2cccc(C(F)(F)F)c2Cl)n1 [Compound 1-157, 1-(4′-{4-[6-(2-Chloro-3-trifluoromethyl-phenyl)-pyridin-2-ylamino]-3-methyl-isoxazol-5-yl}-biphenyl-4-yl)-cyclopropanecarboxylic acid]
< 300 nM	Cc1noc(-c2ccc(-c3ccc(C4(C(=O)O)CC4)cc3)cc2)c1Nc1cccc(-c2cccc(Cl)c2Cl)n1 [Compound 1-158, 1-(4′-{4-[6-(2,3-Dichloro-phenyl)-pyridin-2-ylamino]-3-methyl-isoxazol-5-yl}-biphenyl-4-yl)-cyclopropanecarboxylic acid]
< 300 nM	COc1c(F)cccc1-c1cccc(Nc2c(C)noc2-c2ccc(-c3ccc(C4(C(=O)O)CC4)cc3)cc2)n1 [Compound 1-159, 1-(4′-{4-[6-(3-Fluoro-2-methoxy-phenyl)-pyridin-2-ylamino]-3-methyl-isoxazol-5-yl}-biphenyl-4-yl)-cyclopropanecarboxylic acid]
< 300 nM	Cc1noc(-c2ccc(-c3ccc(C4(C(=O)O)CC4)cc3)cc2)c1Nc1cncc(-c2cccc(Cl)c2)c1 [Compound 1-160, 1-(4′-{4-[5-(3-Chloro-phenyl)-pyridin-3-ylamino]-3-methyl-isoxazol-5-yl}-biphenyl-4-yl)-cyclopropanecarboxylic acid]
< 300 nM	Cc1noc(-c2ccc(-c3ccc(C4(C(=O)O)CC4)cc3)cc2)c1Nc1cncc(-c2cc(F)ccc2F)c1 [Compound 1-161, 1-(4′-{4-[5-(2,5-Difluoro-phenyl)-pyridin-3-ylamino]-3-methyl-isoxazol-5-yl}-biphenyl-4-yl)-cyclopropanecarboxylic acid]
< 300 nM	Cc1noc(-c2ccc(-c3ccc(C4(C(=O)O)CC4)cc3)cc2)c1Nc1cccc(-c2cccc(Cl)c2)n1 [Compound 1-162, 1-(4′-{4-[6-(3-Chloro-phenyl)-pyridin-2-ylamino]-3-methyl-isoxazol-5-yl}-biphenyl-4-yl)-cyclopropanecarboxylic acid]
< 300 nM	CCc1noc(-c2ccc(-c3ccc(C4(C(=O)O)CC4)cc3)cc2)c1Nc1cccc(-c2ccccc2)n1 [Compound 2-1, 1-{4′-[3-Ethyl-4-(6-phenyl-pyridin-2-ylamino)-isoxazol-5-yl]-biphenyl-4-yl}-cyclopropanecarboxylic acid]
< 300 nM	CCc1noc(-c2ccc(-c3ccc(C4(C(=O)O)CC4)cc3)cc2)c1Nc1nnc(-c2ccccc2)o1 [Compound 2-2, 1-{4′-[3-Ethyl-4-(5-phenyl-[1,3,4]oxadiazol-2-ylamino)-isoxazol-5-yl]-biphenyl-4-yl}-cyclopropanecarboxylic acid]
1000 to 50000 nM	Cc1noc(-c2ccc(-c3ccc(C4(C(=O)NS(C)(=O)=O)CC4)cc3)cc2)c1C(O)c1cn(Cc2cccc(C(F)(F)F)c2)nn1 (centres unmarked) [Compound 3-3, N-{1-[4′-(4-{Hydroxy-[1-(3-trifluoromethyl-benzyl)-1H-[1,2,3]triazol-4-yl]-methyl}-3-methyl-isoxazol-5-yl)-biphenyl-4-yl]-cyclopropanecarbonyl}-methanesulfonamide]
< 300 nM	Cc1noc(-c2ccc(-c3ccc(C4(C(=O)NS(C)(=O)=O)CC4)cc3)cc2)c1Nc1nnc(-c2ccccc2)o1 [Compound 3-4, N-(1-{4′-[3-Methyl-4-(5-phenyl-[1,3,4]oxadiazol-2-ylamino)-isoxazol-5-yl]-biphenyl-4-yl}-cyclopropanecarbonyl)-methanesulfonamide]
< 300 nM	Cc1noc(-c2ccc(-c3ccc(C4(C(=O)NS(C)(=O)=O)CC4)cc3)cc2)c1Nc1cccc(Cc2ccccc2)n1 [Compound 3-5, N-(1-{4′-[4-(6-Benzyl-pyridin-2-ylamino)-3-methyl-isoxazol-5-yl]-biphenyl-4-yl}-cyclopropanecarbonyl)-methanesulfonamide]
< 300 nM	Cc1noc(-c2ccc(-c3ccc(C4(C(=O)NS(C)(=O)=O)CC4)cc3)cc2)c1Nc1cccc(-c2ccccc2)n1 [Compound 3-6, N-(1-{4′-[3-Methyl-4-(6-phenyl-pyridin-2-ylamino)-isoxazol-5-yl]-biphenyl-4-yl}-cyclopropanecarbonyl)-methanesulfonamide]
